PubChem BioAssay (NCI)
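A five-concentration, 48-hour dose response in 96-well plates underlies each endpoint, interpolated linearly between surrounding concentrations. At the GI50, growth is halved. TGI: total growth inhibition.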

How the values were obtained:
Experiment in all cases: NCI anticancer screen, dose series, 48 h
EKVX NSCLC = tested on: EKVX NSCLC
HL-60(TB) leukemia = tested on: HL-60(TB) leukemia
K-562 leukemia = tested on: K-562 leukemia
LOX IMVI melanoma = tested on: LOX IMVI melanoma
MOLT-4 leukemia = tested on: MOLT-4 leukemia
NCI-H522 lung = tested on: NCI-H522 lung
OVCAR-4 ovarian = tested on: OVCAR-4 ovarian
U251 CNS = tested on: U251 CNS
UACC-62 melanoma = tested on: UACC-62 melanoma
OVCAR-5 ovarian = tested on: OVCAR-5 ovarian

Cc1cc(N2CCCCC2)nc(NCc2cc(Nc3ccnc4cc(Cl)ccc34)ccc2F)n1
GI50 (EKVX NSCLC): 1.62 µM | TGI (EKVX NSCLC): 3.77 µM | GI50 (HL-60(TB) leukemia): 1.93 µM | TGI (HL-60(TB) leukemia): 3.97 µM | GI50 (K-562 leukemia): 2.07 µM | TGI (K-562 leukemia): 5.17 µM | GI50 (LOX IMVI melanoma): 1.73 µM | TGI (LOX IMVI melanoma): 3.29 µM | GI50 (MOLT-4 leukemia): 1.67 µM | TGI (MOLT-4 leukemia): 4.82 µM | GI50 (NCI-H522 lung): 1.71 µM | TGI (NCI-H522 lung): 3.37 µM | GI50 (OVCAR-4 ovarian): 1.39 µM | TGI (OVCAR-4 ovarian): 2.95 µM | GI50 (U251 CNS): 1.71 µM | TGI (U251 CNS): 3.15 µM | GI50 (UACC-62 melanoma): 1.62 µM | TGI (UACC-62 melanoma): 3.44 µM

CN(C)C=O.CN(C)C=O.CN1C(C(=O)Nc2ccccn2)=C([O-])c2ccccc2S1(=O)=O.CN1C(C(=O)Nc2ccccn2)=C([O-])c2ccccc2S1(=O)=O.[Cu+2]
TGI (EKVX NSCLC): > 100 µM | TGI (HL-60(TB) leukemia): > 100 µM | GI50 (K-562 leukemia): > 100 µM | TGI (K-562 leukemia): > 100 µM | TGI (LOX IMVI melanoma): > 100 µM | TGI (NCI-H522 lung): > 100 µM | TGI (OVCAR-4 ovarian): 78.7 µM | TGI (OVCAR-5 ovarian): > 100 µM | TGI (U251 CNS): > 100 µM | TGI (UACC-62 melanoma): 41.2 µM

COc1ccc2c(c1)C(=O)c1c-2n(CCCCl)c(=O)c2cc([N+](=O)[O-])ccc12
GI50 (EKVX NSCLC): 30.8 µM | TGI (EKVX NSCLC): > 100 µM | GI50 (HL-60(TB) leukemia): < 0.037 µM | TGI (HL-60(TB) leukemia): 0.147 µM | TGI (K-562 leukemia): > 100 µM | GI50 (LOX IMVI melanoma): < 0.01 µM | TGI (LOX IMVI melanoma): 0.111 µM | GI50 (MOLT-4 leukemia): < 0.0211 µM | GI50 (NCI-H522 lung): < 0.0265 µM | TGI (NCI-H522 lung): 0.963 µM | GI50 (OVCAR-4 ovarian): 0.224 µM | TGI (OVCAR-4 ovarian): 33.6 µM | GI50 (OVCAR-5 ovarian): 1.26 µM | TGI (OVCAR-5 ovarian): > 26.4 µM | GI50 (U251 CNS): < 0.01 µM | TGI (U251 CNS): 0.476 µM | TGI (UACC-62 melanoma): 1.81 µM

NS(=O)(=O)c1ccc(C(=O)O)cc1
TGI (EKVX NSCLC): > 100 µM | TGI (HL-60(TB) leukemia): > 100 µM | TGI (K-562 leukemia): > 100 µM | TGI (LOX IMVI melanoma): > 100 µM | TGI (MOLT-4 leukemia): > 100 µM | TGI (NCI-H522 lung): > 100 µM | TGI (OVCAR-4 ovarian): > 100 µM | TGI (OVCAR-5 ovarian): > 100 µM | TGI (U251 CNS): > 100 µM | TGI (UACC-62 melanoma): > 100 µM

Cc1nc2ccccc2c(=O)n1Nc1ccc(C(=O)O)cc1
TGI (EKVX NSCLC): > 100 µM | TGI (HL-60(TB) leukemia): > 100 µM | TGI (K-562 leukemia): > 100 µM | TGI (LOX IMVI melanoma): > 100 µM | TGI (MOLT-4 leukemia): > 100 µM | TGI (NCI-H522 lung): > 100 µM | TGI (OVCAR-4 ovarian): > 100 µM | TGI (OVCAR-5 ovarian): > 100 µM | TGI (U251 CNS): > 100 µM | TGI (UACC-62 melanoma): > 100 µM

O=C(O)\C=C/C=C/C=C/C=C/C(=O)O
TGI (EKVX NSCLC): > 100 µM | TGI (HL-60(TB) leukemia): > 100 µM | TGI (K-562 leukemia): > 100 µM | TGI (LOX IMVI melanoma): > 100 µM | TGI (MOLT-4 leukemia): > 100 µM | TGI (NCI-H522 lung): > 100 µM | TGI (OVCAR-4 ovarian): > 100 µM | TGI (OVCAR-5 ovarian): > 100 µM | TGI (U251 CNS): > 100 µM | TGI (UACC-62 melanoma): > 100 µM

O=C1CC(c2ccccc2)NCCCCN2CC(CN1)C(C(O)c1ccccc1)C2=O (centres undefined)
TGI (EKVX NSCLC): > 100 µM | TGI (HL-60(TB) leukemia): > 100 µM | TGI (LOX IMVI melanoma): > 100 µM | TGI (MOLT-4 leukemia): > 100 µM | TGI (NCI-H522 lung): > 100 µM | TGI (OVCAR-4 ovarian): > 100 µM | TGI (OVCAR-5 ovarian): > 100 µM | TGI (U251 CNS): > 100 µM | TGI (UACC-62 melanoma): > 100 µM

Nc1ccc([As](=O)(O)O)cc1
TGI (EKVX NSCLC): > 100 µM | TGI (HL-60(TB) leukemia): > 100 µM | TGI (K-562 leukemia): > 100 µM | TGI (LOX IMVI melanoma): > 100 µM | TGI (MOLT-4 leukemia): > 100 µM | TGI (NCI-H522 lung): > 100 µM | TGI (OVCAR-4 ovarian): > 100 µM | TGI (OVCAR-5 ovarian): > 100 µM | TGI (U251 CNS): > 100 µM | TGI (UACC-62 melanoma): > 100 µM

Cc1cccc(NC(N)=S)c1
TGI (EKVX NSCLC): > 100 µM | TGI (HL-60(TB) leukemia): > 100 µM | TGI (K-562 leukemia): > 100 µM | TGI (LOX IMVI melanoma): > 100 µM | TGI (MOLT-4 leukemia): > 100 µM | TGI (NCI-H522 lung): > 100 µM | TGI (OVCAR-4 ovarian): > 100 µM | TGI (OVCAR-5 ovarian): > 100 µM | TGI (U251 CNS): > 100 µM | TGI (UACC-62 melanoma): > 100 µM

O=C(Nc1ccc(-n2ccc3c(NC(=O)c4ccccc4)ncnc32)cc1)Nc1ccc(Cl)c(C(F)(F)F)c1
GI50 (EKVX NSCLC): 1.97 µM | TGI (EKVX NSCLC): 4.99 µM | GI50 (HL-60(TB) leukemia): 2.92 µM | TGI (HL-60(TB) leukemia): 6.93 µM | GI50 (K-562 leukemia): 1.45 µM | TGI (K-562 leukemia): 5.04 µM | GI50 (LOX IMVI melanoma): 2 µM | TGI (LOX IMVI melanoma): 6.77 µM | GI50 (MOLT-4 leukemia): 1.87 µM | TGI (MOLT-4 leukemia): 4.82 µM | GI50 (NCI-H522 lung): 1.07 µM | TGI (NCI-H522 lung): 2.89 µM | GI50 (OVCAR-4 ovarian): 1.57 µM | TGI (OVCAR-4 ovarian): 3.48 µM | GI50 (OVCAR-5 ovarian): 1.66 µM | TGI (OVCAR-5 ovarian): 3.89 µM | GI50 (U251 CNS): 1.2 µM | TGI (U251 CNS): 2.55 µM | GI50 (UACC-62 melanoma): 1.9 µM | TGI (UACC-62 melanoma): 4.59 µM

CC1(C)CCc2cc3c(cc2O1)OC(C)(C)CC3=O
TGI (EKVX NSCLC): > 100 µM | TGI (HL-60(TB) leukemia): > 100 µM | TGI (K-562 leukemia): > 100 µM | TGI (LOX IMVI melanoma): > 100 µM | TGI (MOLT-4 leukemia): > 100 µM | TGI (NCI-H522 lung): > 100 µM | TGI (OVCAR-4 ovarian): > 100 µM | TGI (OVCAR-5 ovarian): > 100 µM | TGI (U251 CNS): > 100 µM | TGI (UACC-62 melanoma): > 100 µM

CC(C)(c1ccccc1)c1ccc(Oc2ccc3c(c2)-c2nc-3nc3[nH]c(nc4nc(nc5[nH]c(n2)c2ccc(Oc6ccc(C(C)(C)c7ccccc7)cc6)cc52)-c2cc(Oc5ccc(C(C)(C)c6ccccc6)cc5)ccc2-4)c2ccc(Oc4ccc(C(C)(C)c5ccccc5)cc4)cc32)cc1
TGI (EKVX NSCLC): > 100 µM | TGI (HL-60(TB) leukemia): > 100 µM | TGI (K-562 leukemia): > 100 µM | TGI (LOX IMVI melanoma): > 100 µM | TGI (MOLT-4 leukemia): > 100 µM | TGI (NCI-H522 lung): > 100 µM | TGI (OVCAR-5 ovarian): > 100 µM | TGI (U251 CNS): > 100 µM | TGI (UACC-62 melanoma): > 100 µM

CCc1cc(C)cc2[n+]1CC=C2C
TGI (EKVX NSCLC): > 100 µM | TGI (HL-60(TB) leukemia): > 100 µM | TGI (LOX IMVI melanoma): > 100 µM | TGI (NCI-H522 lung): > 100 µM | TGI (OVCAR-4 ovarian): > 100 µM | TGI (OVCAR-5 ovarian): > 100 µM | TGI (U251 CNS): > 100 µM

COc1ccc(C(=O)NNC(=O)c2nsc3ccccc23)cc1
TGI (EKVX NSCLC): > 100 µM | TGI (HL-60(TB) leukemia): 82.5 µM | TGI (K-562 leukemia): > 100 µM | TGI (LOX IMVI melanoma): > 100 µM | TGI (MOLT-4 leukemia): > 100 µM | TGI (OVCAR-4 ovarian): > 100 µM | TGI (OVCAR-5 ovarian): > 100 µM | TGI (U251 CNS): > 100 µM | TGI (UACC-62 melanoma): > 100 µM
